Source: ChEMBL document CHEMBL1158147, “Ultraviolet-mediated cytotoxic activity of phenylheptatriyne from Bidens pilosa L” (J Nat Prod, 1979)
Activity calls are given as the source filed them. The rule behind the calls is not given here.

How the values were obtained:
[1] = tested on: Pseudomonas fluorescens; assay: Phototoxicity against Pseudomonas fluorescens at 10 ug/disk in presence of long wave UV light; assay type: functional, organism-based
[2] = tested on: Fusarium sp.; assay: Phototoxicity against Fusarium sp. at 10 ug/disk in dark; assay type: functional, organism-based
[3] = tested on: Microsporum canis; assay: Phototoxicity against Microsporum canis at 10 ug/disk in dark; assay type: functional, organism-based
[4] = tested on: Saccharomyces cerevisiae; assay: Phototoxicity against Saccharomyces cerevisiae at 10 ug/disk in presence of cool-white fluorescent light; assay type: functional, organism-based
[5] = tested on: Candida albicans; assay: Phototoxicity against Candida albicans at 5 ug/disk after UV irradiation for 30 mins; assay type: functional; conditions: light or radiation study, 0.5 h, read-out: IZ
[6] = tested on: Trichophyton mentagrophytes; assay: Phototoxicity against Trichophyton mentagrophytes at 10 ug/disk in dark; assay type: functional, organism-based
[7] = tested on: Microsporum canis; assay: Phototoxicity against Microsporum canis at 10 ug/disk in presence of long wave UV light; assay type: functional, organism-based
[8] = tested on: Nannizzia gypsea; assay: Phototoxicity against Microsporum gypseum at 10 ug/disk in dark; assay type: functional, organism-based
[9] = tested on: Pseudomonas fluorescens; assay: Phototoxicity against Pseudomonas fluorescens at 10 ug/disk in dark; assay type: functional, organism-based
[10] = tested on: DNA; assay: Photochemical activity against denatured calf thymus DNA at 10 ug after UV irradiation with 16.00 Joules/cm'2 for 180 mins by hyperchromicity test; assay type: nucleic-acid assay; conditions: Bos taurus
[11] = tested on: Sporobolomyces; assay: Phototoxicity against Sporobolomyces sp. Y138 at 10 ug/disk in dark; assay type: functional, organism-based
[12] = tested on: Microsporum canis; assay: Phototoxicity against Microsporum canis at 10 ug/disk in presence of cool-white fluorescent light; assay type: functional, organism-based
[13] = tested on: Proteus mirabilis; assay: Phototoxicity against Proteus mirabilis UBC 5 at 10 ug/disk in presence of cool-white fluorescent light; assay type: functional, organism-based
[14] = tested on: Candida albicans; assay: Phototoxicity against Candida albicans at 5 ug/disk after UV irradiation for 180 mins; assay type: functional; conditions: light or radiation study, 3 h, read-out: IZ
[15] = tested on: Candida albicans; assay: Phototoxicity against Candida albicans at 10 ug/disk in dark; assay type: functional, organism-based
[16] = tested on: Escherichia coli; assay: Phototoxicity against Escherichia coli at 10 ug/disk in presence of cool-white fluorescent light; assay type: functional, organism-based
[17] = tested on: DNA; assay: Photochemical activity against denatured calf thymus DNA at 10 ug by hyperchromicity test; assay type: nucleic-acid assay; conditions: Bos taurus
[18] = tested on: Bacillus subtilis; assay: Phototoxicity against Bacillus subtilis at 10 ug/disk in dark; assay type: functional, organism-based
[19] = tested on: DNA; assay: Photochemical activity against denatured calf thymus DNA at 10 ug after UV irradiation with 5.33 Joules/cm'2 for 60 mins by hyperchromicity test; assay type: nucleic-acid assay; conditions: Bos taurus
[20] = tested on: Sporobolomyces; assay: Phototoxicity against Sporobolomyces sp. Y138 at 10 ug/disk in presence of cool-white fluorescent light; assay type: functional, organism-based
[21] = tested on: Torula; assay: Phototoxicity against Torula sp. at 10 ug/disk in presence of long wave UV light; assay type: functional, organism-based
[22] = tested on: Proteus mirabilis; assay: Phototoxicity against Proteus mirabilis UBC 5 at 10 ug/disk in dark; assay type: functional, organism-based
[23] = tested on: Saccharomyces cerevisiae; assay: Phototoxicity against Saccharomyces cerevisiae at 5 ug/disk after UV irradiation for 180 mins; assay type: functional; conditions: light or radiation study, 3 h, read-out: IZ
[24] = tested on: Rhodotorula mucilaginosa; assay: Phototoxicity against Rhodotorula rubra Y96 at 10 ug/disk in presence of long wave UV light; assay type: functional, organism-based
[25] = tested on: Saccharomyces cerevisiae; assay: Phototoxicity against Saccharomyces cerevisiae at 10 ug/disk in presence of long wave UV light; assay type: functional, organism-based
[26] = tested on: Rhodotorula mucilaginosa; assay: Phototoxicity against Rhodotorula rubra Y96 at 10 ug/disk in dark; assay type: functional, organism-based
[27] = tested on: Saccharomyces cerevisiae; assay: Phototoxicity against Saccharomyces cerevisiae at 5 ug/disk after UV irradiation for 15 mins; assay type: functional; conditions: light or radiation study, 0.25 h, read-out: IZ
[28] = tested on: Nannizzia gypsea; assay: Phototoxicity against Microsporum gypseum at 10 ug/disk in presence of cool-white fluorescent light; assay type: functional, organism-based
[29] = tested on: DNA; assay: Photochemical activity against denatured calf thymus DNA at 10 ug in dark after 60 mins by hyperchromicity test; assay type: nucleic-acid assay; conditions: Bos taurus; also: unit not given here
[30] = tested on: DNA; assay: Photochemical activity against denatured calf thymus DNA at in dark after 180 mins by hyperchromicity test; assay type: nucleic-acid assay; conditions: Bos taurus
[31] = tested on: Escherichia coli; assay: Phototoxicity against Escherichia coli at 10 ug/disk in presence of long wave UV light; assay type: functional, organism-based
[32] = tested on: DNA; assay: Photochemical activity against denatured calf thymus DNA 10 ug after UV irradiation with 2.67 Joules/cm'2 for 30 mins at by hyperchromicity test; assay type: nucleic-acid assay; conditions: Bos taurus
[33] = tested on: Paraphyton cookei; assay: Phototoxicity against Microsporum cookei at 10 ug/disk in presence of cool-white fluorescent light; assay type: functional, organism-based
[34] = tested on: Candida albicans; assay: Phototoxicity against Candida albicans at 10 ug/disk in presence of long wave UV light; assay type: functional, organism-based
[35] = tested on: Staphylococcus epidermidis; assay: Phototoxicity against Staphylococcus albus at 10 ug/disk in presence of long wave UV light; assay type: functional, organism-based
[36] = tested on: Kocuria rosea; assay: Phototoxicity against Micrococcus roseus UBC 289 at 10 ug/disk in presence of long wave UV light; assay type: functional, organism-based
[37] = tested on: Bacillus subtilis; assay: Phototoxicity against Bacillus subtilis at 10 ug/disk in presence of long wave UV light; assay type: functional, organism-based
[38] = tested on: DNA; assay: Photochemical activity against denatured calf thymus DNA at 10 ug in dark after 30 mins by hyperchromicity test; assay type: nucleic-acid assay; conditions: Bos taurus
[39] = tested on: Enterococcus faecalis; assay: Phototoxicity against Streptococcus faecalis at 10 ug/disk in dark; assay type: functional, organism-based
[40] = tested on: Enterococcus faecalis; assay: Phototoxicity against Streptococcus faecalis at 10 ug/disk in presence of long wave UV light; assay type: functional, organism-based
[41] = tested on: Trichophyton mentagrophytes; assay: Phototoxicity against Trichophyton mentagrophytes at 10 ug/disk in presence of cool-white fluorescent light; assay type: functional, organism-based
[42] = tested on: Saccharomyces cerevisiae; assay: Phototoxicity against Saccharomyces cerevisiae at 10 ug/disk in dark; assay type: functional, organism-based
[43] = tested on: Staphylococcus epidermidis; assay: Phototoxicity against Staphylococcus albus at 10 ug/disk in presence of cool-white fluorescent light; assay type: functional, organism-based
[44] = tested on: DNA; assay: Photochemical activity against denatured calf thymus DNA at in dark after 120 mins by hyperchromicity test; assay type: nucleic-acid assay; conditions: Bos taurus; also: unit not given here
[45] = tested on: Pseudomonas fluorescens; assay: Phototoxicity against Pseudomonas fluorescens at 10 ug/disk in presence of cool-white fluorescent light; assay type: functional, organism-based
[46] = tested on: DNA; assay: Photochemical activity against denatured calf thymus DNA at 10 ug after UV irradiation with 10.67 Joules/cm'2 for 120 mins by hyperchromicity test; assay type: nucleic-acid assay; conditions: Bos taurus; also: unit not given here
[47] = tested on: Fusarium sp.; assay: Phototoxicity against Fusarium sp. at 10 ug/disk in presence of long wave UV light; assay type: functional, organism-based
[48] = tested on: Nannizzia gypsea; assay: Phototoxicity against Microsporum gypseum at 10 ug/disk in presence of long wave UV light; assay type: functional, organism-based
[49] = tested on: Kocuria rosea; assay: Phototoxicity against Micrococcus roseus UBC 289 at 10 ug/disk in presence of cool-white fluorescent light; assay type: functional, organism-based
[50] = tested on: Trichophyton mentagrophytes; assay: Phototoxicity against Trichophyton mentagrophytes at 10 ug/disk in presence of long wave UV light; assay type: functional, organism-based
[51] = tested on: Candida albicans; assay: Phototoxicity against Candida albicans at 10 ug/disk in presence of cool-white fluorescent light; assay type: functional, organism-based
[52] = tested on: Torula; assay: Phototoxicity against Torula sp. at 10 ug/disk in dark; assay type: functional, organism-based
[53] = tested on: Candida albicans; assay: Phototoxicity against Candida albicans at 5 ug/disk after UV irradiation for 15 mins; assay type: functional; conditions: light or radiation study, 0.25 h, read-out: IZ
[54] = tested on: Fusarium sp.; assay: Phototoxicity against Fusarium sp. at 10 ug/disk in presence of cool-white fluorescent light; assay type: functional, organism-based
[55] = tested on: Kocuria rosea; assay: Phototoxicity against Micrococcus roseus UBC 289 at 10 ug/disk in dark; assay type: functional, organism-based
[56] = tested on: Saccharomyces cerevisiae; assay: Phototoxicity against Saccharomyces cerevisiae at 5 ug/disk after UV irradiation for 30 mins; assay type: functional; conditions: light or radiation study, 0.5 h, read-out: IZ
[57] = tested on: Staphylococcus epidermidis; assay: Phototoxicity against Staphylococcus albus at 10 ug/disk in dark; assay type: functional, organism-based
[58] = tested on: Paraphyton cookei; assay: Phototoxicity against Microsporum cookei at 10 ug/disk in dark; assay type: functional, organism-based
[59] = tested on: Enterococcus faecalis; assay: Phototoxicity against Streptococcus faecalis at 10 ug/disk in presence of cool-white fluorescent light; assay type: functional, organism-based
[60] = tested on: Sporobolomyces; assay: Phototoxicity against Sporobolomyces sp. Y138 at 10 ug/disk in presence of long wave UV light; assay type: functional, organism-based
[61] = tested on: Paraphyton cookei; assay: Phototoxicity against Microsporum cookei at 10 ug/disk in presence of long wave UV light; assay type: functional, organism-based
[62] = tested on: Escherichia coli; assay: Phototoxicity against Escherichia coli at 10 ug/disk in dark; assay type: functional, organism-based
[63] = tested on: Proteus mirabilis; assay: Phototoxicity against Proteus mirabilis UBC 5 at 10 ug/disk in presence of long wave UV light; assay type: functional, organism-based
[64] = tested on: DNA; assay: Photochemical activity against denatured calf thymus DNA at 10 ug in dark by hyperchromicity test; assay type: nucleic-acid assay; conditions: Bos taurus; also: unit not given here

Activity [10]: 0.18 | Activity [17]: 0.18 | Activity [19]: 0.18 | Activity [29]: 0.17 | Activity [30]: 0.17 | Activity [32]: 0.18 | Activity [38]: 0.17 | Activity [44]: 0.17 | Activity [46]: 0.17 | Activity [64]: 0.17
Compound: COc1c2occc2cc2ccc(=O)oc12 [METHOXSALEN]
Activity [1]: inactive | Activity [2]: inactive | Activity [3]: inactive | Activity [4]: Active | zone of inhibition at 5 µg/disc [5]: 15 mm | Activity [6]: inactive | Activity [7]: Active | Activity [8]: inactive | Activity [9]: inactive | Activity [11]: inactive | Activity [12]: Active | Activity [13]: inactive | zone of inhibition at 5 µg/disc [14]: 17 mm | Activity [15]: inactive | Activity [16]: inactive | Activity [18]: inactive | Activity [20]: Active | Activity [21]: Active | Activity [22]: inactive | zone of inhibition at 5 µg/disc [23]: 20 mm | Activity [24]: Active | Activity [25]: Active | Activity [26]: inactive | zone of inhibition at 5 µg/disc [27]: 17 mm | Activity [28]: Active | Activity [31]: Active | Activity [33]: Active | Activity [34]: Active | Activity [35]: Active | Activity [36]: Active | Activity [37]: Active | Activity [39]: inactive | Activity [40]: Active | Activity [41]: inactive | Activity [42]: inactive | Activity [43]: Active | Activity [45]: inactive | Activity [47]: Active | Activity [48]: Active | Activity [49]: inactive | Activity [50]: Active | Activity [51]: Active | Activity [52]: inactive | zone of inhibition at 5 µg/disc [53]: 13 mm | Activity [54]: inactive | Activity [55]: inactive | zone of inhibition at 5 µg/disc [56]: 18 mm | Activity [57]: inactive | Activity [58]: inactive | Activity [59]: inactive | Activity [60]: Active | Activity [61]: Active | Activity [62]: inactive | Activity [63]: Active
